Measurements: patent publication US10227357B2, “Compounds and methods for kinase modulation, and indications therefor” (Plexxikon Inc., priority 2012, dated 2019)

Tests used:
c-kit mutant D816V = biological target: T1, c-kit mutant D816V (Homo sapiens, UniProt P10721, D816V/DEL694-753); assay: c-Kit mutant D816V biochemical assay, AlphaScreen; settings: c-kit D816V biochemical inhibitory activity; read-out: Biochemical activity (IC50 μM) Kit D816V
T1 construct: residues 551-934, kinase insertion domain residues 694-753 deleted; 6x-histidine (N); made in house; host or cells: E. coli Arctic Express (DE3) RIL (Stratagene)
In short: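 Eight-point, threefold compound series incubated 30 min at room temperature with E. coli-produced D816V kinase, 10 μM ATP, Mg2+/Mn2+ HEPES buffer pH 7.2 and 5% DMSO. After EDTA stop, streptavidin and anti-phosphotyrosine (PY20) AlphaScreen beads gave the read-out, and IC50 was fitted from the concentration–signal curve.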

c-kit kinase = biological target: T2, c-kit kinase (Homo sapiens, UniProt P10721); assay: c-Kit biochemical assay, AlphaScreen, 10 μM ATP; settings: c-kit biochemical inhibitory activity; read-out: Biochemical activity (IC50 μM) Kit
T2 construct: The c-kit (or kinase domain thereof) is an active kinase in AlphaScreen; poly-Histidine tag (in-house protein only) (cleaved yes); host or cells: E. coli BL21(DE3)RIL, co-expressed with PTP1B
In short: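 His-tagged c-Kit expressed in E. coli with co-expressed PTP1B (dephosphorylated), tag removed; 0.1 ng per reaction with biotinylated-peptide substrate in 50 mM HEPES pH 7.2, 5 mM MgCl2, 5 mM MnCl2, 5% DMSO, 10 μM ATP, 1 h at room temperature. Phosphorylation detected by AlphaScreen (streptavidin donor, PY20 acceptor beads); IC50 from 8-point 1:3 dilution series.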

T2 sequence (P10721 26-976): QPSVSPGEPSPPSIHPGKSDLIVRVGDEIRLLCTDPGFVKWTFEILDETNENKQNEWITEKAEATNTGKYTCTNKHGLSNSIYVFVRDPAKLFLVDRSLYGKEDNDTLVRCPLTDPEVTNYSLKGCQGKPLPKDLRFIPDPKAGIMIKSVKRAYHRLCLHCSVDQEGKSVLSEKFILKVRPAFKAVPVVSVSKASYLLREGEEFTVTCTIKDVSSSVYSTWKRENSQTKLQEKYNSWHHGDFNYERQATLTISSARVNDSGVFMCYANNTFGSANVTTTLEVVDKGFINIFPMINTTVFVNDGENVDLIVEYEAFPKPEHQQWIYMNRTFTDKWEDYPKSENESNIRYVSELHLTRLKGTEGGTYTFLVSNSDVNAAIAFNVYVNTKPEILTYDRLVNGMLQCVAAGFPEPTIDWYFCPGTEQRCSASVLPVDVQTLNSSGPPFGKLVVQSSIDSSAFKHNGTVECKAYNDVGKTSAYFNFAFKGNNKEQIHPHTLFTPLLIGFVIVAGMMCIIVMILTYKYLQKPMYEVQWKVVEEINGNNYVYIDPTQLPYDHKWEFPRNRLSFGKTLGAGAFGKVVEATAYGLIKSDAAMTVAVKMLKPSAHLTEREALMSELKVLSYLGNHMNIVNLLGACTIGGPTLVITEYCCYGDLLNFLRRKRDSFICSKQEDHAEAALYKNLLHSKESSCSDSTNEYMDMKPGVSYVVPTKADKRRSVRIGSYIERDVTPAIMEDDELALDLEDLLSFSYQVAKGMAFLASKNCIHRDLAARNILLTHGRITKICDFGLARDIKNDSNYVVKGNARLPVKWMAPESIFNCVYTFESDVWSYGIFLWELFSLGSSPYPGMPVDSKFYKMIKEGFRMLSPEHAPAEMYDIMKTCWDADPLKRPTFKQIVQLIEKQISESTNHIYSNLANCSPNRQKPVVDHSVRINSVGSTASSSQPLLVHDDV
T1 sequence (P10721 with tags, fused parts or gaps DEL694-753/D816V): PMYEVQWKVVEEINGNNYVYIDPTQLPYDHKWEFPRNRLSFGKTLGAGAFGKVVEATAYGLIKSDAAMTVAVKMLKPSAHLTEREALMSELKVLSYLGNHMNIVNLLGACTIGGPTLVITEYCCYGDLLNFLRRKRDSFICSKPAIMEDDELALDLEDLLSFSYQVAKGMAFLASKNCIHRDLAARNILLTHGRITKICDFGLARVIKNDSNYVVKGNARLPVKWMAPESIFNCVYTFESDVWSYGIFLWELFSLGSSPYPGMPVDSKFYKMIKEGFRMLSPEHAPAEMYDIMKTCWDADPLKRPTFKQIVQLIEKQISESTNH

| Structure (SMILES) | IC50 (c-kit mutant D816V) | IC50 (c-kit kinase) |
| --- | --- | --- |
| Cc1cc2c(-c3ccc(NS(=O)(=O)c4ccc(C(F)(F)F)cc4)cc3)ncnc2[nH]1 [P-0317, N-[4-(6-methyl-7H-pyrrolo[2,3-d]pyrimidin-4-yl)phenyl]-4-(trifluoromethyl)benzenesulfonamide] | 0.0001 to 1 µM | 10 to 200 µM |
| CS(=O)(=O)Nc1ccc(-c2ncnc3cc4c(cc23)OCCO4)c(F)c1 [P-0266, N-[4-(7,8-dihydro-[1,4]dioxino[2,3-g]quinazolin-4-yl)-3-fluoro-phenyl]methanesulfonamide] | 1 to 10 µM | 1 to 10 µM |
| Cc1ccc(S(=O)(=O)Nc2ccc(-c3ncnc4cc(C5=CCN(C(=O)C6CC6)CC5)sc34)cc2)cc1 [P-0583, N-[4-[6-[1-(cyclopropanecarbonyl)-3,6-dihydro-2H-pyridin-4-yl]thieno[3,2-d]pyrimidin-4-yl]phenyl]-4-methyl-benzenesulfonamide] | 0.0001 to 1 µM | 0.0001 to 1 µM |
| COc1cccc([C@H](C)NC(=O)N2CCN(c3ncnc4[nH]c(-c5ccc(F)cc5)cc34)CC2)c1 [P-0144, 4-[6-(4-fluorophenyl)-7H-pyrrolo[2,3-d]pyrimidin-4-yl]-N-[(1S)-1-(3-methoxyphenyl)ethyl]piperazine-1-carboxamide] | 0.0001 to 1 µM | 1 to 10 µM |
| Cc1ccc(-c2cc3c(N4CCN(C(=O)NCc5ccc(F)cc5)CC4)ncnc3[nH]2)cn1 [P-0103, N-[(4-fluorophenyl)methyl]-4-[6-(6-methyl-3-pyridyl)-7H-pyrrolo[2,3-d]pyrimidin-4-yl]piperazine-1-carboxamide] | 0.0001 to 1 µM | 1 to 10 µM |
| Cc1cc2c(-c3ccc(NS(=O)(=O)c4cccc(F)c4)cc3F)ncnc2[nH]1 [P-0358, 3-fluoro-N-[3-fluoro-4-(6-methyl-7H-pyrrolo[2,3-d]pyrimidin-4-yl)phenyl]benzenesulfonamide] | 1 to 10 µM | 1 to 10 µM |
| COc1ccc(S(=O)(=O)Nc2ccc(-c3ncnc4[nH]c(-c5ccc(F)cc5)cc34)cc2F)cc1 [P-0409, N-[2-fluoro-4-[6-(4-fluorophenyl)-7H-pyrrolo[2,3-d]pyrimidin-4-yl]phenyl]-4-methoxy-benzenesulfonamide] | 1 to 10 µM | 10 to 200 µM |
| O=S(=O)(Nc1ccc(-c2cc3c(-c4ccc(NS(=O)(=O)C5CC5)cc4F)ncnc3[nH]2)c(F)c1)C1CC1 [P-0387, N-[4-[4-[4-(cyclopropylsulfonylamino)-2-fluoro-phenyl]-7H-pyrrolo[2,3-d]pyrimidin-6-yl]-3-fluoro-phenyl]cyclopropanesulfonamide] | 0.0001 to 1 µM | 1 to 10 µM |
| COc1cc([C@H](C)NC(=O)N2CCN(c3ncnc4[nH]c(-c5ccc(F)cc5)cc34)C[C@H]2C)ccc1Cl [P-0649, (2R)-N-[(1S)-1-(4-chloro-3-methoxy-phenyl)ethyl]-4-[6-(4-fluorophenyl)-7H-pyrrolo[2,3-d]pyrimidin-4-yl]-2-methyl-piperazine-1-carboxamide] | 0.0001 to 1 µM | 1 to 10 µM |
| [2H]C([2H])([2H])Oc1cccc([C@H](C)NC(=O)N2CCN(c3ncnc4[nH]c(-c5ccc(F)cc5)cc34)CC2)c1 [P-0015, 4-[6-(4-fluorophenyl)-7H-pyrrolo[2,3-d]pyrimidin-4-yl]-N-[(1S)-1-[3-(trideuteriomethoxy)phenyl]ethyl]piperazine-1-carboxamide] | 0.0001 to 1 µM | 1 to 10 µM |
| C[C@H](NC(=O)N1CCN(c2ncnc3[nH]c(-c4ccc(F)cc4)cc23)C[C@H]1C)c1cccc(OC(F)F)c1 [P-0014, (2R)-N-[(1S)-1-[3-(difluoromethoxy)phenyl]ethyl]-4-[6-(4-fluorophenyl)-7H-pyrrolo[2,3-d]pyrimidin-4-yl]-2-methyl-piperazine-1-carboxamide] | 0.0001 to 1 µM | 1 to 10 µM |
| Cc1ccc2sc(S(=O)(=O)Nc3ccc(-c4ncnc5[nH]c(C)cc45)cc3)cc2c1 [P-0308, 5-methyl-N-[4-(6-methyl-7H-pyrrolo[2,3-d]pyrimidin-4-yl)phenyl]benzothiophene-2-sulfonamide] | 1 to 10 µM | 10 to 200 µM |
| Cn1cc(-c2cc3c(N4CCC(NS(=O)(=O)c5ccc(C6(C#N)CC6)cc5)CC4)ncnc3[nH]2)cn1 [P-0486, 4-(1-cyanocyclopropyl)-N-[1-[6-(1-methylpyrazol-4-yl)-7H-pyrrolo[2,3-d]pyrimidin-4-yl]-4-piperidyl]benzenesulfonamide] | 1 to 10 µM | 1 to 10 µM |
| CCOc1ccc(NC(=O)N2CCN(c3ncnc4[nH]c(-c5ccc(Cl)cc5)cc34)CC2)cc1 [P-0214, 4-[6-(4-chlorophenyl)-7H-pyrrolo[2,3-d]pyrimidin-4-yl]-N-(4-ethoxyphenyl)piperazine-1-carboxamide] | 0.0001 to 1 µM | 0.0001 to 1 µM |
| O=C(NCc1ccc(Cl)cc1)N1CCN(c2ncnc3[nH]ccc23)CC1 [P-0170, N-[(4-chlorophenyl)methyl]-4-(7H-pyrrolo[2,3-d]pyrimidin-4-yl)piperazine-1-carboxamide] | 10 to 200 µM | 1 to 10 µM |
| Cc1nn(C)cc1-c1cc2c(N3CCN(C(=O)N[C@@H](C)c4ccc(F)cc4)[C@H](C)C3)ncnc2[nH]1 [P-0715, (2R)-4-[6-(1,3-dimethylpyrazol-4-yl)-7H-pyrrolo[2,3-d]pyrimidin-4-yl]-N-[(1S)-1-(4-fluorophenyl)ethyl]-2-methyl-piperazine-1-carboxamide] | 0.0001 to 1 µM | 1 to 10 µM |
| O=C(Nc1ccccc1Cl)N1CCN(c2ncnc3[nH]c(-c4cccnc4)cc23)CC1 [P-0219, N-(2-chlorophenyl)-4-[6-(3-pyridyl)-7H-pyrrolo[2,3-d]pyrimidin-4-yl]piperazine-1-carboxamide] | 1 to 10 µM | 10 to 200 µM |
| O=C(NCc1cccc(F)c1)NC1CCN(c2ncnc3[nH]ccc23)CC1 [P-0510, 1-[(3-fluorophenyl)methyl]-3-[1-(7H-pyrrolo[2,3-d]pyrimidin-4-yl)-4-piperidyl]urea] | 10 to 200 µM | 10 to 200 µM |
| Cc1nn(C)cc1-c1cc2c(N3CCC(NS(=O)(=O)c4ccc(Cl)cc4)CC3)ncnc2[nH]1 [P-0667, 4-chloro-N-[1-[6-(1,3-dimethylpyrazol-4-yl)-7H-pyrrolo[2,3-d]pyrimidin-4-yl]-4-piperidyl]benzenesulfonamide] | 0.0001 to 1 µM | 0.0001 to 1 µM |
| CS(=O)(=O)Nc1ccc(-c2ncnc3cc(C4=CCN(C(=O)N5CCOCC5)CC4)sc23)cc1 [P-0555, N-[4-[6-[1-(morpholine-4-carbonyl)-3,6-dihydro-2H-pyridin-4-yl]thieno[3,2-d]pyrimidin-4-yl]phenyl]methanesulfonamide] | 0.0001 to 1 µM | 0.0001 to 1 µM |
| C[C@H](NC(=O)N1CC=C(c2ncnc3cc(-c4ccc(F)cc4)sc23)CC1)c1cccc(OC(F)F)c1 [P-0573, N-[(1S)-1-[3-(difluoromethoxy)phenyl]ethyl]-4-[6-(4-fluorophenyl)thieno[3,2-d]pyrimidin-4-yl]-3,6-dihydro-2H-pyridine-1-carboxamide] | 1 to 10 µM | 10 to 200 µM |
| Cc1ncc(-c2cc3c(N4CCN(C(=O)Nc5ccc(OC(F)(F)F)cc5)CC4)ncnc3[nH]2)s1 [P-0080, 4-[6-(2-methylthiazol-5-yl)-7H-pyrrolo[2,3-d]pyrimidin-4-yl]-N-[4-(trifluoromethoxy)phenyl]piperazine-1-carboxamide] | 0.0001 to 1 µM | 0.0001 to 1 µM |
| CCCNC(=O)N1CCN(c2ncnc3[nH]c(-c4ccccc4)cc23)CC1 [P-0236, 4-(6-phenyl-7H-pyrrolo[2,3-d]pyrimidin-4-yl)-N-propyl-piperazine-1-carboxamide] | 10 to 200 µM | 1 to 10 µM |
| COc1cccc([C@H](C)NC(=O)N2CCN(c3ncnc4[nH]c(C#CC5CC5)cc34)CC2)c1 [P-0047, 4-[6-(2-cyclopropylethynyl)-7H-pyrrolo[2,3-d]pyrimidin-4-yl]-N-[(1S)-1-(3-methoxyphenyl)ethyl]piperazine-1-carboxamide] | 0.0001 to 1 µM | 1 to 10 µM |
| Cc1nn(C)cc1-c1cc2ncnc(C3CCN(C(=O)NCc4ccc(F)cc4)CC3)c2s1 [P-0604, 4-[6-(1,3-dimethylpyrazol-4-yl)thieno[3,2-d]pyrimidin-4-yl]-N-[(4-fluorophenyl)methyl]piperidine-1-carboxamide] | 0.0001 to 1 µM | 1 to 10 µM |
| Cc1ccc(S(=O)(=O)Nc2ccc(-c3ncnc4[nH]c(C)cc34)c(F)c2)cc1 [P-0293, N-[3-fluoro-4-(6-methyl-7H-pyrrolo[2,3-d]pyrimidin-4-yl)phenyl]-4-methyl-benzenesulfonamide] | 0.0001 to 1 µM | 1 to 10 µM |
| [2H]C([2H])([2H])S(=O)(=O)Nc1ccc(-c2ncnc3cc(OCCCN4CCCCC4)c(OC)cc23)c(F)c1 [P-0254, 1,1,1-trideuterio-N-[3-fluoro-4-[6-methoxy-7-[3-(1-piperidyl)propoxy]quinazolin-4-yl]phenyl]methanesulfonamide] | 0.0001 to 1 µM | 1 to 10 µM |
| O=S(=O)(Nc1ccc(-c2ncnc3[nH]c(Cl)cc23)cc1)c1ccc(OC(F)F)cc1 [P-0655, N-[4-(6-chloro-7H-pyrrolo[2,3-d]pyrimidin-4-yl)phenyl]-4-(difluoromethoxy)benzenesulfonamide] | 1 to 10 µM | 1 to 10 µM |
